Measurements from US12029739B2, “SHP2 inhibitor and use thereof” (KANAPH THERAPEUTICS INC., priority 2021, dated 2024).
Like-named read-outs stand apart in the source and are kept apart here.

Columns and labels:
SHP2 (full length) = target: T1, SHP2 (full length) (Homo sapiens, UniProt Q06124); assay: Phosphatase assay (PTPase assay) with DiFMUP substrate; format: biochemical; conditions: SHP2 activated with SHP2 activating peptide, DiFMUP 80 μM, 2 hours, fluorescence
T1 construct: SHP2 (full length, diluted to 100 pM final concentration in reaction buffer, BPS bioscience, US); purchased BPS bioscience, US
T1 sequence (Q06124 1-593): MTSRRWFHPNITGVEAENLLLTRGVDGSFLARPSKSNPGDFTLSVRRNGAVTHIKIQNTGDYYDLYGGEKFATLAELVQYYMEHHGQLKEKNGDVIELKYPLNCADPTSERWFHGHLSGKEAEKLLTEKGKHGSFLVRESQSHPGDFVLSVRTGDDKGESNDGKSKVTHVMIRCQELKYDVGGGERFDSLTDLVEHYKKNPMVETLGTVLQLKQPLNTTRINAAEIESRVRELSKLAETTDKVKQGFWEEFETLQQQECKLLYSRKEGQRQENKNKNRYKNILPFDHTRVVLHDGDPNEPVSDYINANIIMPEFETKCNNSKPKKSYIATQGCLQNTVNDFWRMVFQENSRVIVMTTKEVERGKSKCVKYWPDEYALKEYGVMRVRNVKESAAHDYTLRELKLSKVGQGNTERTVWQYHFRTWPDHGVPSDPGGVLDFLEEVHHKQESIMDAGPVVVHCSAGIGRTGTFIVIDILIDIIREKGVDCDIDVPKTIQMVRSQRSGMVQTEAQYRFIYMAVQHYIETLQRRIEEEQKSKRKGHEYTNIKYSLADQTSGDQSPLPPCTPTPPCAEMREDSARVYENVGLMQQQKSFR

[1] = tested on: phospho-ERK in MIA PaCa2 or H358 cells; assay: Phospho-ERK assay (AlphaLisa); format: cell-based
[2] = 1.5 h, read-out: IC50 (p-ERK, nM)
[3] = MIA PaCa2 or H358 cells, compound incubated 1.5 hours, read-out: IC50 (p-ERK)
[4] = 1.5 h, MIA PaCa2 or H358 cells, compound incubated 1.5 hours, read-out: IC50 (p-ERK)

SMILES	IC50 (SHP2 (full length); IC50 (PTPase aS say, nM)) [nM]	IC50 [1, 2] [nM]	IC50 (SHP2 (full length); read-out: IC50 (PTPase aS say)) [nM]	IC50 [1, 3] [nM]	IC50 [1, 4] [nM]
C[C@@H]1OCC2(CCN(c3cnc(Sc4cccc(S(=O)(=O)F)c4Cl)cn3)CC2)[C@@H]1N [Example 11, 3-((5-((3S,4S)-4-amino-3-methyl-2-oxa-8-azaspiro[4.5]decan-8-yl)pyrazin-2-yl)thio)-2-chlorobenzenesulfonyl fluoride]	< 3	< 45	–	–	–
C[C@@H]1OCC2(CCN(c3cnc(Sc4cccc(S(N)(=O)=O)c4Cl)c(N)n3)CC2)[C@@H]1N [Example 12, 3-((3-amino-5-((3S,4S)-4-amino-3-methyl-2-oxa-8-azaspiro[4.5]decan-8-yl)pyrazin-2-yl)thio)-2-chlorobenzenesulfonamide]	–	–	3 to 100	45 to 1500	–
CC1(CN)CCN(c2cnc(Sc3ccc4ncn(Cc5ccccc5)c(=O)c4c3Cl)cn2)CC1 [Example 13, 6-((5-(4-(aminomethyl)-4-methylpiperidin-1-yl)pyrazin-2-yl)thio)-3-benzyl-5-chloroquinazolin-4(3H)-one]	–	–	3 to 100	45 to 1500	–
CC1(N)CCN(c2cnc(Sc3ccc4ncn(Cc5cccc([N+](=O)[O-])c5)c(=O)c4c3Cl)cn2)CC1 [Example 14, 6-((5-(4-amino-4-methylpiperidin-1-yl)pyrazin-2-yl)thio)-5-chloro-3-(3-nitrobenzyl)quinazolin-4(3H)-one]	–	–	3 to 100	–	45 to 1500
Cn1cnc2ccc(Sc3cnc(N4CCC(C)(CN)CC4)cn3)c(Cl)c2c1=O [Example 15, 6-((5-(4-(aminomethyl)-4-methylpiperidin-1-yl)pyrazin-2-yl)thio)-5-chloro-3-methylquinazolin-4(3H)-one]	–	–	3 to 100	–	45 to 1500
CC1(CN)CCN(c2cnc(Sc3ccc4ncn(Cc5cccc(S(=O)(=O)F)c5)c(=O)c4c3Cl)cn2)CC1 [Example 16, 3-((6-((5-(4-(aminomethyl)-4-methylpiperidin-1-yl)pyrazin-2-yl)thio)-5-chloro-4-oxoquinazolin-3(4H)-yl)methyl)benzenesulfonyl fluoride]	< 3	45 to 1500	–	–	–
CC1(CN)CCN(c2cnc(Sc3ccc4ncn(Cc5ccc(S(=O)(=O)F)cc5)c(=O)c4c3Cl)cn2)CC1 [Example 17, 4-((6-((5-(4-(aminomethyl)-4-methylpiperidin-1-yl)pyrazin-2-yl)thio)-5-chloro-4-oxoquinazolin-3(4H)-yl)methyl)benzenesulfonyl fluoride]	3 to 100	45 to 1500	–	–	–
C[C@@H]1OCC2(CCN(c3cnc(Sc4ccc5ncn(Cc6ccccc6)c(=O)c5c4Cl)cn3)CC2)[C@@H]1N [Example 18, 6-((5-((3S,4S)-4-amino-3-methyl-2-oxa-8-azaspiro[4.5]decan-8-yl)pyrazin-2-yl)thio)-3-benzyl-5-chloroquinazolin-4(3H)-one]	–	–	< 3	< 45	–
C[C@@H]1OCC2(CCN(c3cnc(Sc4ccc5ncn(Cc6cccc(S(=O)(=O)F)c6)c(=O)c5c4Cl)cn3)CC2)[C@@H]1N [Example 19, 3-((6-((5-((3S,4S)-4-amino-3-methyl-2-oxa-8-azospiro[4.5]decan-8-yl)pyrazin-2-yl)thio)-5-chloro-4-oxoquinazolin-3(4H)-yl)methyl)benzenesulfonyl fluoride]	< 3	45 to 1500	–	–	–
C[C@@H]1OCC2(CCN(c3cnc(Sc4ccc5ncn(Cc6cccnc6)c(=O)c5c4Cl)cn3)CC2)[C@@H]1N [Example 20, 6-((5-((3S,4S)-4-amino-3-methyl-2-oxa-8-azospiro[4.5]decan-8-yl)pyrazin-2-yl)thio)-5-chloro-3-(pyridin-3-ylmethyl)quinazolin-4H-one]	–	–	< 3	–	< 45
Cc1nc2ccc(Sc3cnc(N4CCC(C)(CN)CC4)cn3)c(Cl)c2c(=O)[nH]1 [Example 22, 6-((5-(4-(aminomethyl)-4-methylpiperidin-1-yl)pyrazin-2-yl)thio)-5-chloro-2-methylquinazolin-4(3H)-one]	–	–	3 to 100	–	45 to 1500
Cc1nc2ccc(Sc3cnc(N4CCC(C)(CN)CC4)cn3)c(Cl)c2c(=O)n1Cc1ccccc1 [Example 23, 6-((5-(4-(aminomethyl)-4-methylpiperidin-1-yl)pyrazin-2-yl)thio)-3-benzyl-5-chloro-2-methylquinazolin-4(3H)-one]	–	–	3 to 100	–	45 to 1500
Cc1nc2ccc(Sc3cnc(N4CCC(C)(N)CC4)cn3)c(Cl)c2s1 [Example 24, 1-(5-((7-chloro-2-methylbenzo[d]thiazol-6-yl)thio)pyrazin-2-yl)-4-methylpiperidin-4-amine]	–	–	3 to 100	–	> 1500
Cn1cc2c(Cl)c(Sc3cnc(N4CCC(C)(N)CC4)cn3)ccc2n1 [Example 25, 1-(5-((4-chloro-2-methyl-2H-indazol-5-yl)thio)pyrazin-2-yl)-4-methylpiperidin-4-amine]	–	–	3 to 100	–	45 to 1500
C[C@@H]1OCC2(CCN(c3cnc(Sc4ccc5nn(C)cc5c4Cl)cn3)CC2)[C@@H]1N [Example 26, (3S,4S)-8-(5-((4-chloro-2-methyl-2H-indazol-5-yl)thio)pyrazin-2-yl)-3-methyl-2-oxa-8-azaspiro[4.5]decan-4-amine]	–	–	< 3	–	< 45
Cn1c(N2CCC(C)(N)CC2)nc(N)c(Sc2cccc(C(=O)O)c2Cl)c1=O [Example 27, 3-((4-amino-2-(4-amino-4-methylpiperidin-1-yl)-1-methyl-6-oxo-1,6-dihydropyrimidin-5-yl)thio)-2-chlorobenzoic acid]	–	–	> 100	–	> 1500
CC1(N)CCN(c2cnc(Sc3ccc4ncn(-c5ccccc5)c(=O)c4c3Cl)cn2)CC1 [Example 28, 6-((5-(4-amino-4-methylpiperidin-1-yl)pyrazin-2-yl)thio)-5-chloro-3-phenylquinazolin-4(3H)-one]	–	–	3 to 100	–	45 to 1500
Cn1c(N2CCC(C)(N)CC2)nc(N)c(Sc2ccc3nc[nH]c(=O)c3c2Cl)c1=O [Example 29, 6-((4-amino-2-(4-amino-4-methylpiperidin-1-yl)-1-methyl-6-oxo-1,6-dihydropyrimidin-5-yl)thio)-5-chloroquinazolin-4(3H)-one]	–	–	> 100	–	> 1500
Cn1c(N2CCC(C)(N)CC2)nc(N)c(Sc2ccc3ncn(-c4ccccc4)c(=O)c3c2Cl)c1=O [Example 30, 6-((4-amino-2-(4-amino-4-methylpiperidin-1-yl)-1-methyl-6-oxo-1,6-dihydropyrimidin-5-yl)thio)-5-chloro-3-phenylquinazolin-4(3H)-one]	–	–	> 100	–	> 1500
C[C@@H]1OCC2(CCN(c3cnc(Sc4ccc5ncn(Cc6cccc(C#N)c6)c(=O)c5c4Cl)cn3)CC2)[C@@H]1N [Example 31, 3-((6-((5-((3S,4S)-4-amino-3-methyl-2-oxa-8-azaspiro[4.5]decan-8-yl)pyrazin-2-yl)thio)-5-chloro-4-oxoquinazolin-3(4H)-yl)methyl)benzonitrile]	–	–	< 3	–	< 45
CC(c1ccccc1)n1cnc2ccc(Sc3cnc(N4CCC5(CC4)CO[C@@H](C)[C@H]5N)cn3)c(Cl)c2c1=O (stereo partly drawn) [Example 32, 6-((5-((3S,4S)-4-amino-3-methyl-2-oxa-8-azaspiro[4.5]decan-8-yl)pyrazin-2-yl)thio)-5-chloro-3-(1-phenylethyl)quinazolin-4(3H)-one]	–	–	< 3	–	45 to 1500
C[C@@H]1OCC2(CCN(c3cnc(Sc4ccc5ncn(Cc6cccc(F)c6)c(=O)c5c4Cl)cn3)CC2)[C@@H]1N [Example 33, 6-((5-((3S,4S)-4-amino-3-methyl-2-oxa-8-azaspiro[4.5]decan-8-yl)pyrazin-2-yl)thio)-5-chloro-3-(3-fluorobenzyl)quinazolin-4(3H)-one]	–	–	< 3	–	45 to 1500
C[C@@H]1OCC2(CCN(c3cnc(Sc4ccc5ncn(Cc6cccc(C(F)(F)F)c6)c(=O)c5c4Cl)cn3)CC2)[C@@H]1N [Example 34]	–	–	3 to 100	–	45 to 1500
C[C@@H]1OCC2(CCN(c3cnc(Sc4ccc5ncn(Cc6nccs6)c(=O)c5c4Cl)cn3)CC2)[C@@H]1N [Example 35, 6-((5-((3S,4S)-4-amino-3-methyl-2-oxa-8-azaspiro[4.5]decan-8-yl)pyrazin-2-yl)thio)-5-chloro-3-(thiazol-2-ylmethyl)quinazolin-4(3H)-one]	–	–	< 3	–	< 45
COc1cccc(Cn2cnc3ccc(Sc4cnc(N5CCC6(CC5)CO[C@@H](C)[C@H]6N)cn4)c(Cl)c3c2=O)c1 [Example 36, 6-((5-((3S,4S)-4-amino-3-methyl-2-oxa-8-azaspiro[4.5]decan-8-yl)pyrazin-2-yl)thio)-5-chloro-3-(3-methoxybenzyl)quinazolin-4(3H)-one]	–	–	< 3	–	< 45
